Assay results: patent publication US20110200656A1, “ANTIMICROBIAL CURRENCY, MATERIAL AND METHOD” (MICROBAN PRODUCTS COMPANY, priority 2007, published 2011)

Key:
[1] = tested on: Staphylococcus aureus ATCC 6538; assay: Quantitative evaluation of antibacterial activity of bank note samples, modified AATCC 100-1993; conditions: 625 ppm agent in acrylate coating
Method: (§1) For the testing, a protocol was selected which measured the percent kill in a bacterial population over a period of time when put in contact with banknote samples.
(§2) Tests were conducted against two common bacteria: the gram-positive Staphylococcus aureus, which is found almost everywhere in and on the body, and which can cause numerous infections; as well as the gram-negative Escherichia coli, which is a common “bathroom bacteria” that can cause severe food poisoning. With good results against these organisms, efficacy against a broad spectrum of other bacteria can be predicted.
(§3) Ten samples marked Secu-GB1-A-260503, Secu-GB2-A-260503, Secu-GB3-A-260503, Secu-GB4-A-260503, Secu-GB5-A-260503, Secu-C-A-260503, Secu-C-B-260503, Secu-C-C-260503, Secu-C-D-260503 and Secu-C-E-260503 were manufactured employing 2,4,4′-trichloro-2′-hydroxydiphenyl ether in the acrylate composition applied as a coating layer on the planar material.
(§4) Samples from the bank note prototypes were evaluated for their antibacterial activity in accordance with the modified method AATCC 100-1993. The tests were performed against the organisms Staphylococcus aureus ATCC 6538 and Escherichia coli ATCC 8739.

[2] = tested on: Escherichia coli ATCC 8739; assay: as above; conditions: 625 ppm agent in acrylate coating
Method: as §1, §2, §3, §4

## Oc1cc(Cl)ccc1Oc1ccc(Cl)cc1Cl [2,4,4′-trichloro-2′-hydroxydiphenyl ether]
[1]
  log reductions (in words): strong log reductions
[2]
  log reductions (in words): strong log reductions
